Measurements from patent publication US12162836B2, “N-acyl-{4-[(4-aryl-phenyl)sulfonylmethyl]piperidine} compounds and their therapeutic use” (Modern Biosciences Limited, priority 2019, dated 2024).
Values after ≈ are worked out from the molar mass of the structure shown.

What was measured:
[1] = test system: Thp1 human monocytic cells; assay: Thp1 Monocyte ATP Production Assay (ATPlite); assay type: cell-based; settings: for IC50: Thp1 cells, 24 hour incubation, 9-point concentration range from 10 μM to 10 nM, mean of 2 independent experiments; for potency in the Thp1 monocytic ATP assay (in words): as compared to the reference compounds
Method in brief: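 Thp1 cells in glucose-free RPMI-1640 with 1% FBS were treated with compounds for 24 h at 37 °C/5% CO2, then ATP measured by ATPlite luminescence. Signal expressed as % of control viability; IC50 from 4-parameter fit, mean of two experiments.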

human hepatocytes = assay: Human Hepatocyte Stability; assay type: in vitro ADME; settings: for metabolic stability (in words): human hepatocytes
Protocol: Metabolic stability of test compounds was measured by determination of the rate of disappearance of the compound when incubated in the presence of human hepatocytes, a primary source of the most important enzymes (cytochrome P450s) involved in drug metabolism. Study of drug stability in the presence of primary hepatocytes is accepted as a valuable model permitting rapid prediction of in vivo drug stability.
Human hepatocytes were obtained from a commercial source and viability was assessed using a trypan blue solution prior to use. Test compounds (final concentration 1 μM, 0.1 DMSO, 0.9% acetonitrile) or a marker (diclofenac or diltiazem, final assay concentration 1 μM, 0.1% DMSO, 0.9% acetonitrile) were incubated with pooled hepatocytes for a 60 minute period and samples removed at up to 6 time points and analysed by LC-MS/MS for the presence/amount of test compounds.
Each compound was incubated for 0, 5, 15, 30, 45, or 60 minutes. The reactions were stopped by the addition of methanol containing an internal standard (1 μM Tolbutamide) at the appropriate time points, mixed and placed at −20° C. for 1 hour to quench and allow protein to precipitate. All samples were centrifuged (2500× g, 20 minutes, 4° C.). The aliquots were analysed using LC-MS/MS. Reactions were performed in duplicate at 37° C.
Data were processed, and the results plotted as In(concentration) vs. time. The elimination rate constant (slope of the regression line, k) was calculated using the following formula, where C(t) is the concentration at time t and C(0) is the starting concentration:
The half-life (t1/2) was calculated using the following formula: […]
The intrinsic clearance (Clint) was calculated using the following formula, where [cell] is the hepatocyte concentration in the assay: […]

[2] = Aqueous solubility in FaSSIF; assay type: physicochemical; settings: for solubility at 16 h: kinetic from dmso stock
[3] = pooled human hepatocytes, 1 μM, 60 minute incubation
[4] = pH 6.5, 16 hours, room temperature

Row | SMILES | IC50 [1] | Human Clint (human hepatocytes; [3]) | Human t1/2 (human hepatocytes; [3]) | Solubility [2, 4] | Solubility ([2]; pH 6.8) | IC50 ([1]; Homo sapiens, THP-1) | potency in the Thp1 monocytic ATP assay (in words) [1] | metabolic stability (in words) (human hepatocytes) | solubility at 16 h [2, 4] | solubility (in words) [2]
1 | CC1(O)CCC(NS(=O)(=O)c2ccc(-c3ccc(F)cc3F)cc2)CC1 (stereo not shown) [ABD899, reference compound] | 200 nM | 9 uL/min/million cells | 2.48 h | 0.06 ^(3) mg/mL | 0.13 mg/mL (≈ 341 µM) | – | – | – | – | –
2 | CC(=O)N1CCC(CS(=O)(=O)c2ccc(-c3ccc(F)cc3F)cc2)CC1 [NASMP-01, 1-(4-(((2′,4′-Difluoro-[1,1′-biphenyl]-4-yl)sulfonyl)methyl)piperidin-1-yl)ethan-1-one] | – | – | – | – | – | 1000 nM | excellent potency | exceptionally good stability | 75 µg/mL (≈ 191 µM) | –
3 | CC(=O)N1CCC(CS(=O)(=O)c2ccc(-c3ccc(C#N)cc3Cl)cc2)CC1 [NASMP-05, 4′-(((1-Acetylpiperidin-4-yl)methyl)sulfonyl)-2-chloro-[1,1′-biphenyl]-4-carbonitrile] | – | – | – | – | – | 1100 nM | – | exceptionally good stability | 62 µg/mL (≈ 149 µM) | particularly good solubility
4 | CC(=O)N1CCC(CS(=O)(=O)c2ccc(-c3ccc(Cl)cc3C#N)cc2)CC1 [NASMP-06, 4′-(((1-Acetylpiperidin-4-yl)methyl)sulfonyl)-4-chloro-[1,1′-biphenyl]-2-carbonitrile] | – | – | – | – | – | 900 nM | – | exceptionally good stability | 83 µg/mL (≈ 199 µM) | particularly good solubility
5 | CC(=O)N1CCC(CS(=O)(=O)c2ccc(-c3ccc(C(F)(F)F)cc3F)cc2)CC1 [NASMP-07, 1-(4-(((2′-Fluoro-4′-(trifluoromethyl)-[1,1′-biphenyl]-4-yl)sulfonyl)methyl)piperidin-1-yl)ethan-1-one] | – | – | – | – | – | 800 nM | excellent potency | – | 89 µg/mL (≈ 201 µM) | particularly good solubility
6 | CC(=O)N1CCC(CS(=O)(=O)c2ccc(-c3c(F)cccc3F)cc2)CC1 [NASMP-09, 1-(4-(((2′,6′-Difluoro-[1,1′-biphenyl]-4-yl)sulfonyl)methyl)piperidin-1-yl)ethan-1-one] | – | – | – | – | – | 1400 nM | – | exceptionally good stability | 28 µg/mL (≈ 71.2 µM) | –
7 | CC(=O)N1CCC(CS(=O)(=O)c2ccc(-c3ccc(F)cc3F)cc2C(F)(F)F)CC1 [NASMP-12, 1-(4-(((2′,4′-Difluoro-3-(trifluoromethyl)-[1,1′-biphenyl]-4-yl)sulfonyl)methyl)piperidin-1-yl)ethan-1-one] | – | – | – | – | – | 100 nM | excellent potency | exceptionally good stability | 68 µg/mL (≈ 147 µM) | particularly good solubility
8 | CCC(=O)N1CCC(CS(=O)(=O)c2ccc(-c3ccc(F)cc3F)cc2)CC1 [NASMP-15, 1-(4-(((2′,4′-Difluoro-[1,1′-biphenyl]-4-yl)sulfonyl)methyl)piperidin-1-yl)propan-1-one] | – | – | – | – | – | 600 nM | excellent potency | exceptionally good stability | 73 µg/mL (≈ 179 µM) | particularly good solubility
